# Measurements from patent publication US8618133B2, “Aralkyl alcohol pyridine derivative compounds and the use thereof as medicaments for treating depression” (priority 2008, dated 2013).
# Where two headings read alike, the source gives them in different places.
# Columns and labels:
# [1] = biological target: T1, reuptake of 5-serotonin (5-HT) by brain synaptosomes (Rattus norvegicus, UniProt P31652); experiment: [3H]5-HT reuptake by rat brain synaptosomes; format: biochemical; settings: for inhibiting activity on the reuptake of 5-HT (in words): concentration 10 μmol/L, effectiveness equivalent to venlafaxine and DOV21947; for Inhibition of reuptake of 5-HT: rat prefrontal cortex synaptosomes, 0.1 mmol/L for control drug and drug to be detected
# T1 construct: taking prefrontal cortex for the [^3H]5-HT and [^3H]NA reuptake experiment; from tissue; host or cells: rat brain prefrontal cortex synaptosomes
# T1 sequence (P31652 whole entry): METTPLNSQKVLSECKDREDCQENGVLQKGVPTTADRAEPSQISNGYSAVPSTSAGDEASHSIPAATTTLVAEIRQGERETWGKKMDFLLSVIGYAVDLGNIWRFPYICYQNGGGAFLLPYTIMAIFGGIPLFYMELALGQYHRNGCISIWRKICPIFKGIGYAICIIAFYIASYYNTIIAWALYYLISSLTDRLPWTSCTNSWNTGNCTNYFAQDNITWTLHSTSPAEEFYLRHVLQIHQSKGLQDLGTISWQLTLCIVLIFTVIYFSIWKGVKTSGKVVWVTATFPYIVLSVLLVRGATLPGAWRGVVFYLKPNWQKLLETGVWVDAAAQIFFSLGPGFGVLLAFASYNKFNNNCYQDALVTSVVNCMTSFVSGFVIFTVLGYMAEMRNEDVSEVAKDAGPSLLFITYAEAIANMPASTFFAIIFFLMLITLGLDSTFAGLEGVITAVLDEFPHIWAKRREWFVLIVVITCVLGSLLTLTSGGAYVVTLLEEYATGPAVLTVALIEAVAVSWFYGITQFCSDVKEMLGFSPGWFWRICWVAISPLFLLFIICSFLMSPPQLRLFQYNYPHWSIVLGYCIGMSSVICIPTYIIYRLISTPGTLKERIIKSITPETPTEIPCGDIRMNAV
# [2] = biological target: T2, reuptake of dopamine (DA) by brain synaptosomes (Rattus norvegicus, UniProt P23977); experiment: [3H]DA reuptake by rat brain synaptosomes; format: biochemical; settings: for inhibiting activity on the reuptake of DA (in words): concentration 10 μmol/L, effectiveness equivalent to venlafaxine and DOV21947; for Inhibition of reuptake of DA / inhibition at 100 µM: rat striatum synaptosomes, 0.1 mmol/L for control drug and drug to be detected
# T2 construct: taking striatum for the [^3H]DA reuptake experiment; from tissue; host or cells: rat brain striatum synaptosomes
# T2 sequence (P23977 whole entry): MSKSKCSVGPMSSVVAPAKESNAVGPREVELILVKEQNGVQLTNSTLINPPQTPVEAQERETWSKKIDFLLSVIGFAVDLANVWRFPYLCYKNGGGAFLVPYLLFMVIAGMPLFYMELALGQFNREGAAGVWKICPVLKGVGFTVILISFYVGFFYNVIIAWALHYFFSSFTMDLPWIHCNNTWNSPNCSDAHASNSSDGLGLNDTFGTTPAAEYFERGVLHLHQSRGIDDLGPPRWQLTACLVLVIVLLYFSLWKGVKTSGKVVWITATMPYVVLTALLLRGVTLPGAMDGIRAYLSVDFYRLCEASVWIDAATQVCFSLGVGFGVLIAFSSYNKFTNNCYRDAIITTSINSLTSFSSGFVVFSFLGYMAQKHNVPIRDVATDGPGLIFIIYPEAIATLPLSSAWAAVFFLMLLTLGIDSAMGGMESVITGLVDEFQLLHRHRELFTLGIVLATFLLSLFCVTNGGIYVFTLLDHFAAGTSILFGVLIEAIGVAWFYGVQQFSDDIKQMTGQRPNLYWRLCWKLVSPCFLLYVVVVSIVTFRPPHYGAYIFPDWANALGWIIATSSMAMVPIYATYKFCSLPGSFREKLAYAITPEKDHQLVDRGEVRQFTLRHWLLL
# [3] = biological target: T3, reuptake of norepinephrine (NA) by brain synaptosomes (Rattus norvegicus, UniProt Q63380); experiment: [3H]NA reuptake by rat brain synaptosomes; format: biochemical; settings: for inhibiting activity on the reuptake of NA (in words): concentration 10 μmol/L, effectiveness equivalent to venlafaxine and DOV21947; for Inhibition of reuptake of NA / inhibition at 100 µM: rat prefrontal cortex synaptosomes, 0.1 mmol/L for control drug and drug to be detected
# T3 construct: taking prefrontal cortex for the [^3H]5-HT and [^3H]NA reuptake experiment; from tissue; host or cells: rat brain prefrontal cortex synaptosomes
# T3 sequence (Q63380 1-617): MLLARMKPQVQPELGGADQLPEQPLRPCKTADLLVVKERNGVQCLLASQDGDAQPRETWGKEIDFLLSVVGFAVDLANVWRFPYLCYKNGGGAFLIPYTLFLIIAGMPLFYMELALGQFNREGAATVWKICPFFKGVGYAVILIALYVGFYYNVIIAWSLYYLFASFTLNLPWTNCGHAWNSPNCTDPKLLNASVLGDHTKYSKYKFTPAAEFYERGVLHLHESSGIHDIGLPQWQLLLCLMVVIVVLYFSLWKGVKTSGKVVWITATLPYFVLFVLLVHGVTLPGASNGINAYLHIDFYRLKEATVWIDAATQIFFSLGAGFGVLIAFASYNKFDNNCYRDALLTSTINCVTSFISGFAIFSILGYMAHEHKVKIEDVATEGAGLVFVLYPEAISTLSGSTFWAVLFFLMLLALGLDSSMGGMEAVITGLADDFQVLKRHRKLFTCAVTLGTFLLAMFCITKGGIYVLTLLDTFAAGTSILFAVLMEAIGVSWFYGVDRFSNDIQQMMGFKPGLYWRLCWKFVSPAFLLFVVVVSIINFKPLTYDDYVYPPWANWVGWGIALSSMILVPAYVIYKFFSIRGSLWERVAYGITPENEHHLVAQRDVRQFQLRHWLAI
# mice [4] = experiment: Acute toxicity, single dosage LD50 to mice; format: in vivo; settings: Bliss statistics, preliminary screening
# mice [5] = experiment: forced swimming test of mice (immobility); format: in vivo; settings: for Immobility time: mice, swimming test
# [6] = tested on: Salmonella typhimurium histidine auxotroph mutant TA97, TA98, TA100 and TA102; format: cell-based
# Source text: Strains: Salmonella typhimurium histidine auxotroph mutant TA97, TA98, TA100 and TA102.
# The experimental method: the method reported in Maron D M et al: (1983) Mutay Res. 113, 173-216 is used;
# The experimental result: the experiment comprises two parts: −S9 and +S9.
SMILES,inhibiting activity on the reuptake of 5-HT (in words) [1],Inhibition of reuptake of 5-HT [1],inhibiting activity on the reuptake of DA (in words) [2],Inhibition of reuptake of DA [2],inhibiting activity on the reuptake of NA (in words) [3],Inhibition of reuptake of NA [3],other results
"COc1ccc2cc([C@@H](O)[C@H](C)N3CCC(Cc4ccccc4)CC3)ccc2c1Cl [Compound V-2, Erythro-4-benzyl-N-[1-methyl-2-hydroxy-2-(5-chloro-6-methoxynaphthalene-2-yl)]ethylpiperidine]",stronger inhibiting activity,105.6 ± 0.9,stronger inhibiting activity,93.1 ± 2.0,stronger inhibiting activity,65.3 ± 6.7,
"COc1ccc2cc([C@@H](O)[C@H](C)N3CCC(O)(Cc4ccccc4)CC3)ccc2c1Cl [Compound V-14, Erythro-4-benzyl-4-hydroxy-N-[1-methyl-2-hydroxy-2-(5-chloro-6-methoxynaphthalene-2-yl)]ethylpiperidine]",stronger inhibiting activity,94.9 ± 1.2,stronger inhibiting activity,91.0 ± 0.9,stronger inhibiting activity,93.0 ± 20.8,"LD50 (mice [4]): 1150 mg/kg; in vivo anti-depression activity (in words) (mice [5]; forced swimming test of mice, effect similar to venlafaxine): strong in vivo anti-depression activity; Immobility time (mice [5]; dosage 6.9 mg/kg): 52.8 ± 32.0 s; Immobility time (mice [5]; dosage 13.8 mg/kg): 82.1 ± 62.0 s; Immobility time (mice [5]; dosage 27.6 mg/kg): 74.9 ± 37.8 s; bacteriostatic effect ([6]; 5000 μg/dish, TA97, S9 added testing system): have bacteriostatic effect; bacteriostatic effect ([6]; 5000 μg/dish, non-S9 testing system): have bacteriostatic effect; Ames test, reverse mutation ([6]; all tested dosages, with or without S9): negative; bacteriostatic effect ([6]; other dosages, all strains): do nut have a bacteriostatic effect"
"COc1ccc2cc(C(O)CCN3CCC(=Cc4ccccc4)CC3)ccc2c1Cl (centres unmarked) [Compound V-32, 4-benzyl-methylene-N-[3-hydroxy-3-(5-chloro-6-methoxynaphthalene-2-yl)]propylpiperidine]",stronger inhibiting activity,104.4 ± 2.0,stronger inhibiting activity,92.4 ± 7.6,stronger inhibiting activity,36.6 ± 19.1,
"COc1ccc2cc(C(O)C(C)N3CCC(=Cc4ccc(F)cc4)CC3)ccc2c1Cl (centres unmarked) [Compound V-34, 4-(4-fluorobenzyl)-methylene-N-[1-methyl-2-hydroxy-2-(5-chloro-6-methoxynaphthalene-2-yl)]ethyl-piperidine]",,106.3 ± 2.3,,99.1 ± 4.3,,18.8 ± 13.4,
"COc1ccc2cc(C(O)C(C)N3CCC(=Cc4ccccc4)CC3)ccc2c1Cl (centres unmarked) [Compound V-38, 4-benzyl-methylene-N-[1-methyl-2-hydroxy-2-(5-chloro-6-methoxynaphthalene-2-yl)]ethyl-piperidine]",stronger inhibiting activity,107.0 ± 0.5,stronger inhibiting activity,99.6 ± 2.9,stronger inhibiting activity,87.4 ± 5.5,
"COc1ccc2cc([C@@H](O)[C@H](C)N3CC=C(Cc4ccccc4)CC3)ccc2c1Cl [Compound V-40, Erythro-4-benzyl-N-[1-methyl-2-hydroxy-2-(5-chloro-6-methoxynaphthalene-2-yl)]ethyl-1,2,3,6-tetrahydropyridine]",,99.5 ± 1.6,,50.7 ± 21.8,,62.6 ± 15.3,
"COc1ccc2cc([C@@H](O)[C@H](C)N3CCC(OCc4ccccc4)CC3)ccc2c1Cl [Compound V-50, Erythro-4-benzyloxy-N-[1-methyl-2-hydroxy-2-(5-chloro-6-methoxynaphthalene-2-yl)]ethylpiperidine]",,91.8 ± 1.6,,23.1 ± 16.8,,41.8 ± 7.3,
"Clc1ccc([C@]23CNC[C@H]2C3)cc1Cl [DOV 21947, reference compound]",,,,,,,inhibition at 100 µM ([1]; read-out: Inhibition of reuptake of 5-HT): 109 ± 3.8%; inhibition at 100 µM [2]: 104 ± 4.2%; inhibition at 100 µM [3]: 61.9 ± 6%
"COc1ccc(C(CN(C)C)C2(O)CCCCC2)cc1 (centres unmarked) [venlafaxine, reference compound]",,,,,,,inhibition at 100 µM [2]: 48.6 ± 4.1%; Immobility time (mice [5]; dosage 4.56 mg/kg): 57.1 ± 37.8 s; Immobility time (mice [5]; dosage 9.12 mg/kg): 77.4 ± 47.2 s; Immobility time (mice [5]; dosage 18.24 mg/kg): 80.8 ± 46.8 s; inhibition at 100 µM [3]: 46.4 ± 4.6%
